Measurements: ChEMBL document CHEMBL1201862, “PubChem BioAssay data set” (2004)
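Test compounds were applied to cells in 96-well plates for 48 hours at 5 doses. GI50 is the concentration that inhibits growth by half.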 Activity calls are given as the source filed them. No stated cut-off is given here; in the data, active = GI50 up to about 1.1 µM and inactive = higher.

Tests used:
Assay in all cases: DTP human tumour cell line panel, 48 h
[1] = system: 786-0
[2] = system: A498
[3] = system: A549
[4] = system: ACHN
[5] = system: BT-549
[6] = system: CAKI-1
[7] = system: CCRF-CEM
[8] = system: COLO 205
[9] = system: DLD-1
[10] = system: DMS-114
[11] = system: DMS-273
[12] = system: DU-145
[13] = system: EKVX
[14] = system: HCC 2998
[15] = system: HCT-116
[16] = system: HCT-15
[17] = system: HL-60
[18] = system: HOP-18
[19] = system: HOP-62
[20] = system: HOP-92
[21] = system: HT-29
[22] = system: Hs-578T
[23] = system: IGROV-1
[24] = system: K562
[25] = system: KM-20L2
[26] = system: KM12
[27] = system: LOX IMVI
[28] = system: LXFL 529
[29] = system: M14
[30] = system: MCF7
[31] = system: MDA-MB-231
[32] = system: MDA-MB-435
[33] = system: MDA-N
[34] = system: MOLT-4
[35] = system: Malme-3M
[36] = system: NCI-H226
[37] = system: NCI-H23
[38] = system: NCI-H460
[39] = system: NCI-H522
[40] = system: NCI/ADR-RES
[41] = system: OVCAR-3
[42] = system: OVCAR-4
[43] = system: OVCAR-5
[44] = system: OVCAR-8
[45] = system: PC-3
[46] = system: RPMI-8226
[47] = system: RXF 393
[48] = system: SF-268
[49] = system: SF-295
[50] = system: SF-539
[51] = system: SK-MEL-28
[52] = system: SK-MEL-2
[53] = system: SK-MEL-5
[54] = system: SK-OV-3
[55] = system: SN12C
[56] = system: SNB-19
[57] = system: SNB-75
[58] = system: SNB-78
[59] = system: SR
[60] = system: SW-620
[61] = system: T47D
[62] = system: TK-10
[63] = system: U-251
[64] = system: UACC-257
[65] = system: UACC-62
[66] = system: UO-31

`O=C1C=C(Nc2cccnc2)c2ccccc2C1=O` was tested, and the GI50 [1] was 8.95 µM (inactive), the GI50 [2] was 9.08 µM (inactive) and the GI50 [3] was 3.65 µM (inactive). For the same compound, the GI50 [4] was 7.73 µM (inactive), the GI50 [5] was 1.44 µM (inactive) and the GI50 [6] was 4.58 µM (inactive). For the same compound, the GI50 [7] was 15.2 µM (inactive), the GI50 [8] was 21.6 µM (inactive) and the GI50 [9] was 5.11 µM (inactive). The GI50 [10] was 2.02 µM (inactive), the GI50 [11] was 6.81 µM (inactive) and the GI50 [12] was 4.15 µM (inactive). The GI50 [13] was 12.2 µM (inactive), the GI50 [14] was 11.2 µM (inactive) and the GI50 [15] was 11.6 µM (inactive). For the same compound, the GI50 [16] was 4.31 µM, the GI50 [17] was 3.31 µM (inactive) and the GI50 [18] was 10.3 µM (inactive). For the same compound, the GI50 [19] was 4.23 µM (inactive), the GI50 [20] was 16.1 µM (inactive) and the GI50 [21] was 17 µM (inactive). The GI50 [22] was 2.4 µM (inactive), the GI50 [23] was 7.73 µM (inactive) and the GI50 [24] was 1.76 µM (inactive). The GI50 [25] was > 43.2 µM (inactive), the GI50 [26] was 4.03 µM (inactive) and the GI50 [27] was 2.61 µM (inactive). For the same compound, the GI50 [28] was 11.4 µM (inactive), the GI50 [29] was 1.91 µM (inactive) and the GI50 [30] was 2.64 µM (inactive). For the same compound, the GI50 [31] was 4.61 µM (inactive), the GI50 [32] was 0.348 µM (active) and the GI50 [33] was 0.372 µM (active). The GI50 [34] was 17.6 µM (inactive), the GI50 [35] was 2.34 µM (inactive) and the GI50 [36] was 25.6 µM (inactive). For the same compound, the GI50 [37] was 2.8 µM (inactive), the GI50 [38] was 3.41 µM (inactive) and the GI50 [39] was 4.7 µM (inactive). For the same compound, the GI50 [40] was 4.25 µM (inactive), the GI50 [41] was 2.72 µM (inactive) and the GI50 [42] was 8.87 µM (inactive). For the same compound, the GI50 [43] was 8.13 µM (inactive), the GI50 [44] was 7.55 µM (inactive) and the GI50 [45] was 8.85 µM (inactive). For the same compound, the GI50 [46] was 9.04 µM (inactive), the GI50 [47] was 13.1 µM (inactive) and the GI50 [48] was 7.91 µM (inactive). For the same compound, the GI50 [49] was 2.92 µM (inactive), the GI50 [50] was 2.97 µM (inactive) and the GI50 [51] was 5.58 µM (inactive). The GI50 [52] was 7.23 µM (inactive), the GI50 [53] was 1.26 µM (inactive) and the GI50 [54] was 8.71 µM (inactive). For the same compound, the GI50 [55] was 8.02 µM (inactive), the GI50 [56] was 7.1 µM (inactive) and the GI50 [57] was 1.51 µM (inactive). For the same compound, the GI50 [58] was 15.5 µM (inactive), the GI50 [59] was 6.55 µM (inactive) and the GI50 [60] was 4.13 µM (inactive). For the same compound, the GI50 [61] was 21.4 µM (inactive), the GI50 [62] was 19.1 µM (inactive) and the GI50 [63] was 9.25 µM (inactive). The GI50 [64] was 1.9 µM (inactive), the GI50 [65] was 1.68 µM (inactive) and the GI50 [66] was 12 µM (inactive).
For `O=[N+]([O-])C(=C/c1cccs1)/C(=C\c1cccs1)[N+](=O)[O-]`, the GI50 [1] was 0.298 µM (active), the GI50 [2] was 1.64 µM (inactive) and the GI50 [3] was 2.27 µM (inactive). The GI50 [4] was 0.543 µM (active), the GI50 [5] was 1.35 µM (inactive) and the GI50 [6] was 0.465 µM (active). For the same compound, the GI50 [7] was 0.0263 µM (active), the GI50 [8] was 0.429 µM (active) and the GI50 [12] was 1.43 µM (inactive). For the same compound, the GI50 [13] was 2.29 µM (inactive), the GI50 [14] was 1.21 µM (inactive) and the GI50 [15] was 1.11 µM (active). The GI50 [16] was 0.199 µM, the GI50 [17] was 0.0246 µM (active) and the GI50 [19] was 2.47 µM (inactive). The GI50 [20] was 0.802 µM (active), the GI50 [21] was 1.12 µM (inactive) and the GI50 [22] was 1.13 µM (inactive). For the same compound, the GI50 [23] was 0.774 µM (active), the GI50 [24] was 0.272 µM (active) and the GI50 [26] was 2.34 µM (inactive). The GI50 [27] was 0.209 µM (active), the GI50 [29] was 1.04 µM (active) and the GI50 [30] was 0.676 µM (active). For the same compound, the GI50 [31] was 0.44 µM (active), the GI50 [32] was 0.441 µM (active) and the GI50 [33] was 0.423 µM (active). The GI50 [34] was 0.157 µM (active), the GI50 [35] was 1.03 µM (active) and the GI50 [36] was 2.77 µM (inactive). For the same compound, the GI50 [37] was 0.787 µM (active), the GI50 [38] was 0.597 µM (active) and the GI50 [39] was 0.327 µM (active). The GI50 [40] was 0.54 µM (active), the GI50 [41] was 1.85 µM (inactive) and the GI50 [42] was 1.87 µM (inactive). For the same compound, the GI50 [43] was 1.68 µM (inactive), the GI50 [44] was 0.342 µM (active) and the GI50 [45] was 0.575 µM (active). For the same compound, the GI50 [46] was 0.267 µM (active), the GI50 [47] was 0.157 µM (active) and the GI50 [48] was 0.861 µM (active). For the same compound, the GI50 [49] was 1.96 µM (inactive), the GI50 [50] was 0.212 µM (active) and the GI50 [51] was 0.395 µM (active). The GI50 [52] was 1.75 µM (inactive), the GI50 [53] was 1.08 µM (active) and the GI50 [54] was 2.89 µM (inactive). For the same compound, the GI50 [55] was 0.547 µM (active), the GI50 [56] was 1.98 µM (inactive) and the GI50 [57] was 9.46 µM (inactive). The GI50 [59] was 0.0719 µM (active), the GI50 [60] was 0.348 µM (active) and the GI50 [61] was 1.68 µM (inactive). The GI50 [62] was 0.962 µM (active), the GI50 [63] was 0.397 µM (active) and the GI50 [64] was 1.29 µM (inactive). For the same compound, the GI50 [65] was 0.778 µM (active) and the GI50 [66] was 1.2 µM (inactive).
`CC1=NN(C(=O)CC(=O)Nc2ccc(C)cc2)C(=O)C1/N=N\c1ccc(S(=O)(=O)c2ccc(/N=N/C3C(=O)N(C(=O)CC(=O)Nc4ccc(C)cc4)N=C3C)cc2)cc1` (centres undefined) was tested, and the GI50 [1] was 21 µM (inactive), the GI50 [2] was > 100 µM (inactive) and the GI50 [3] was 31.6 µM (inactive). The GI50 [4] was 62.8 µM (inactive), the GI50 [5] was > 100 µM (inactive) and the GI50 [6] was > 100 µM (inactive). For the same compound, the GI50 [7] was 9.4 µM (inactive), the GI50 [8] was > 100 µM (inactive) and the GI50 [12] was > 100 µM (inactive). For the same compound, the GI50 [13] was > 100 µM (inactive), the GI50 [14] was 83.6 µM (inactive) and the GI50 [15] was 43.4 µM (inactive). For the same compound, the GI50 [16] was 44.6 µM, the GI50 [17] was 16.4 µM (inactive) and the GI50 [19] was > 100 µM (inactive). The GI50 [20] was > 100 µM (inactive), the GI50 [21] was > 10 µM (inactive) and the GI50 [22] was 93.8 µM (inactive). For the same compound, the GI50 [23] was 28.4 µM (inactive), the GI50 [24] was 4.98 µM (inactive) and the GI50 [26] was 65.6 µM (inactive). For the same compound, the GI50 [27] was 16.2 µM (inactive), the GI50 [29] was 38 µM (inactive) and the GI50 [30] was > 100 µM (inactive). The GI50 [31] was 35.6 µM (inactive), the GI50 [32] was 84.3 µM (inactive) and the GI50 [33] was 69.7 µM (inactive). The GI50 [34] was 42.5 µM (inactive), the GI50 [35] was 67 µM (inactive) and the GI50 [36] was > 100 µM (inactive). The GI50 [37] was > 100 µM (inactive), the GI50 [38] was 38.5 µM (inactive) and the GI50 [39] was 23.3 µM (inactive). The GI50 [40] was > 100 µM (inactive), the GI50 [41] was 64.6 µM (inactive) and the GI50 [42] was > 100 µM (inactive). The GI50 [43] was > 100 µM (inactive), the GI50 [44] was 64.6 µM (inactive) and the GI50 [45] was 72.4 µM (inactive). For the same compound, the GI50 [46] was 82.4 µM (inactive), the GI50 [47] was > 100 µM (inactive) and the GI50 [48] was > 100 µM (inactive). For the same compound, the GI50 [49] was > 100 µM (inactive), the GI50 [50] was > 100 µM (inactive) and the GI50 [51] was > 100 µM (inactive). The GI50 [52] was 58.6 µM (inactive), the GI50 [53] was 58.9 µM (inactive) and the GI50 [54] was 72.4 µM (inactive). For the same compound, the GI50 [55] was 50.1 µM (inactive), the GI50 [56] was > 100 µM (inactive) and the GI50 [57] was > 100 µM (inactive). For the same compound, the GI50 [59] was 27.5 µM (inactive), the GI50 [60] was 32.7 µM (inactive) and the GI50 [61] was > 100 µM (inactive). For the same compound, the GI50 [62] was > 100 µM (inactive), the GI50 [63] was 52.1 µM (inactive) and the GI50 [64] was > 100 µM (inactive). For the same compound, the GI50 [65] was 65.9 µM (inactive) and the GI50 [66] was > 100 µM (inactive).
